This assay has as its target T1, human GPR17 receptor (Homo sapiens, UniProt Q13304).
T1 construct: host or cells: HEK-293
Put plainly: Calcium mobilization functional assay (Fluo-8, FLIPR TETRA) in HEK-293 hGPR17 (Gα-q assay). Type of assay: cell-based. The settings on record: antagonism of MDL29,951 (~EC80) induced Ca2+ signal; cell line (HEK-293 hGPR17 or HEK-293 Suchi5 hGPR17) not given. In outline:
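Fluo-8-loaded HEK-293 hGPR17 cells (60 min dye loading, room temperature) were preincubated with compound for twenty minutes, then challenged with agonist MDL29,951 at ~EC80, 500 nM. Intracellular calcium release via Gα-q was recorded as FLIPR fluorescence for a further 2 minutes; compounds tested in duplicate.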
Background: Calcium flux is commonly read through the fluorescence of an indicator in the cells.
T1 sequence (Q13304 whole entry): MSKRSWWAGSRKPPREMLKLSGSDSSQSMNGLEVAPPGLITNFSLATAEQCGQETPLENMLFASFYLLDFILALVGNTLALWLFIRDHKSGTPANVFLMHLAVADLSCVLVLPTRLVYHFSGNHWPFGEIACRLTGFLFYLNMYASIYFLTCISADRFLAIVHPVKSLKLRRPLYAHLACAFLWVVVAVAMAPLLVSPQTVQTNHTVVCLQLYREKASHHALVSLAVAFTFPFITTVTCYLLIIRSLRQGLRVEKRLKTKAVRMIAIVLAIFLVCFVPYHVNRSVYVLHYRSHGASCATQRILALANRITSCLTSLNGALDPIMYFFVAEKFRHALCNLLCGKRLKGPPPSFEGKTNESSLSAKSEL
For `O=S(=O)(Nc1cc(F)c(C(F)(F)F)cc1F)c1c[nH]c(-c2cc(CO)ccc2F)c1` [Cpd 234, N-[2,5-difluoro-4-(trifluoromethyl)phenyl]-5-[2-fluoro-5-(hydroxymethyl)phenyl]-1H-pyrrole-3-sulfonamide], the IC50 – broadly, the concentration needed to halve the response being measured – is less than 0.5 µM. Regarding `COCc1ccc(F)c(-c2cc(S(=O)(=O)Nc3cc(F)c(C(F)(F)F)cc3F)c[nH]2)c1` [Cpd 235, N-[2,5-difluoro-4-(trifluoromethyl)phenyl]-5-[2-fluoro-5-(methoxymethyl)phenyl]-1H-pyrrole-3-sulfonamide], the IC50 lay within 0.5 to 5 µM.

In the case of `N#Cc1ccc(NS(=O)(=O)c2c[nH]c(C3CC3)c2)c(F)c1` [Cpd 236, N-(4-cyano-2-fluoro-phenyl)-5-cyclopropyl-1H-pyrrole-3-sulfonamide], the IC50 lay within 5 to 50 µM. With `CCOc1cc(F)c(NS(=O)(=O)c2c[nH]c(-c3ccccn3)c2)cc1F` [Cpd 237, N-(4-ethoxy-2,5-difluoro-phenyl)-5-(2-pyridyl)-1H-pyrrole-3-sulfonamide], the IC50 is 0.5 to 5 µM. Then `N#Cc1ccc(NS(=O)(=O)c2c[nH]cc2C2=CCCC2)c(F)c1` [Cpd 238, N-(4-cyano-2-fluorophenyl)-4-(cyclopent-1-en-1-yl)-1H-pyrrole-3-sulfonamide], with less than 0.5 µM. Then `O=S(=O)(Nc1ccc(OC(F)F)cc1F)c1c[nH]c(-c2ccccn2)c1` [Cpd 239, N-[4-(difluoromethoxy)-2-fluoro-phenyl]-5-(2-pyridyl)-1H-pyrrole-3-sulfonamide], with 0.5 to 5 µM; and `CCOc1ccccc1-c1cc(S(=O)(=O)Nc2ccc(C#N)cc2F)c[nH]1` [Cpd 240, N-(4-cyano-2-fluoro-phenyl)-5-(2-ethoxyphenyl)-1H-pyrrole-3-sulfonamide], with 0.5 to 5 µM; and `CC(C)Oc1cc(F)c(NS(=O)(=O)c2c[nH]c(-c3ccccn3)c2)cc1F` [Cpd 241, N-(2,5-difluoro-4-isopropoxy-phenyl)-5-(2-pyridyl)-1H-pyrrole-3-sulfonamide], with 5 to 50 µM. Then `N#Cc1ccc(NS(=O)(=O)c2c[nH]cc2C2CCCC2)c(F)c1` [Cpd 242, N-(4-cyano-2-fluoro-phenyl)-4-cyclopentyl-1H-pyrrole-3-sulfonamide], with 5 to 50 µM; and `O=S(=O)(Nc1cc(F)c(C(F)(F)F)cc1F)c1c[nH]c(-c2nccn2CC(F)(F)F)c1` [Cpd 243, N-[2,5-difluoro-4-(trifluoromethyl)phenyl]-5-[1-(2,2,2-trifluoroethyl)imidazol-2-yl]-1H-pyrrole-3-sulfonamide], with 5 to 50 µM. For `N#Cc1ccc(NS(=O)(=O)c2c[nH]c(-c3ccccc3OC(F)F)c2)c(F)c1` [Cpd 244, N-(4-cyano-2-fluoro-phenyl)-5-[2-(difluoromethoxy)phenyl]-1H-pyrrole-3-sulfonamide], the IC50 is less than 0.5 µM. With `O=C1CCCN1c1cc(S(=O)(=O)Nc2cc(F)c(C(F)(F)F)cc2F)c[nH]1` [Cpd 245, N-[2,5-difluoro-4-(trifluoromethyl)phenyl]-5-(2-oxopyrrolidin-1-yl)-1H-pyrrole-3-sulfonamide], the IC50 lay within 5 to 50 µM.

Consider `O=S(=O)(Nc1cc(F)c(OC(F)(F)F)cc1F)c1c[nH]c(-c2ccccn2)c1` [Cpd 246, N-[2,5-difluoro-4-(trifluoromethoxy)phenyl]-5-(2-pyridyl)-1H-pyrrole-3-sulfonamide], for which the IC50 is less than 0.5 µM. In the case of `COc1ccnc(F)c1-c1cc(S(=O)(=O)Nc2cc(F)c(C(F)(F)F)cc2F)c[nH]1` [Cpd 247, N-[2,5-difluoro-4-(trifluoromethyl)phenyl]-5-(2-fluoro-4-methoxy-3-pyridyl)-1H-pyrrole-3-sulfonamide], the IC50 was in the range of 0.5 to 5 µM. As for `CCn1ccnc1-c1cc(S(=O)(=O)Nc2cc(F)c(C(F)(F)F)cc2F)c[nH]1` [Cpd 248, N-[2,5-difluoro-4-(trifluoromethyl)phenyl]-5-(1-ethylimidazol-2-yl)-1H-pyrrole-3-sulfonamide], the IC50 is 0.5 to 5 µM. In the case of `Cc1c(F)cccc1-c1cc(S(=O)(=O)Nc2ccc(C#N)cc2F)c[nH]1` [Cpd 249, N-(4-cyano-2-fluoro-phenyl)-5-(3-fluoro-2-methyl-phenyl)-1H-pyrrole-3-sulfonamide], the half-inhibitory concentration (IC50) was in the range of 0.5 to 5 µM. As for `Cc1ccc(-c2cc(S(=O)(=O)Nc3ccc(C#N)cc3F)c[nH]2)c(Cl)c1` [Cpd 250, 5-(2-chloro-4-methyl-phenyl)-N-(4-cyano-2-fluoro-phenyl)-1H-pyrrole-3-sulfonamide], the figure is 0.5 to 5 µM. Then `COc1ccc(-c2cc(S(=O)(=O)Nc3ccc(C#N)cc3F)c[nH]2)c(C)c1` [Cpd 251, N-(4-cyano-2-fluoro-phenyl)-5-(4-methoxy-2-methyl-phenyl)-1H-pyrrole-3-sulfonamide], with 5 to 50 µM. As to `Cc1cccc(-c2cc(S(=O)(=O)Nc3ccc(C#N)cc3F)c[nH]2)c1C` [Cpd 252, N-(4-cyano-2-fluoro-phenyl)-5-(2,3-dimethylphenyl)-1H-pyrrole-3-sulfonamide], the IC50 fell in the range of 0.5 to 5 µM. Regarding `Cc1c(Cl)cccc1-c1cc(S(=O)(=O)Nc2ccc(C#N)cc2F)c[nH]1` [Cpd 253, 5-(3-chloro-2-methyl-phenyl)-N-(4-cyano-2-fluoro-phenyl)-1H-pyrrole-3-sulfonamide], the IC50 is 0.5 to 5 µM. As for `Cc1ccc(Cl)c(-c2cc(S(=O)(=O)Nc3ccc(C#N)cc3F)c[nH]2)c1` [Cpd 254, 5-(2-chloro-5-methyl-phenyl)-N-(4-cyano-2-fluoro-phenyl)-1H-pyrrole-3-sulfonamide], the figure is 0.5 to 5 µM; as for `Cc1cc(F)ccc1-c1cc(S(=O)(=O)Nc2ccc(C#N)cc2F)c[nH]1` [Cpd 255, N-(4-cyano-2-fluoro-phenyl)-5-(4-fluoro-2-methyl-phenyl)-1H-pyrrole-3-sulfonamide], 0.5 to 5 µM. For `N#Cc1ccc(NS(=O)(=O)c2c[nH]c(-c3cc(F)ccc3Cl)c2)c(F)c1` [Cpd 256, 5-(2-chloro-5-fluoro-phenyl)-N-(4-cyano-2-fluoro-phenyl)-1H-pyrrole-3-sulfonamide], the IC50 is less than 0.5 µM. Turning to `COc1ccc(Cl)c(-c2cc(S(=O)(=O)Nc3ccc(C#N)cc3F)c[nH]2)c1` [Cpd 257, 5-(2-chloro-5-methoxy-phenyl)-N-(4-cyano-2-fluoro-phenyl)-1H-pyrrole-3-sulfonamide], the IC50 is less than 0.5 µM. Consider `N#Cc1ccc(NS(=O)(=O)c2c[nH]c(-c3ccc(F)cc3Cl)c2)c(F)c1` [Cpd 258, 5-(2-chloro-4-fluoro-phenyl)-N-(4-cyano-2-fluoro-phenyl)-1H-pyrrole-3-sulfonamide], for which the IC50 was less than 0.5 µM. As for `COc1cc(-c2cc(S(=O)(=O)Nc3ccc(C#N)cc3F)c[nH]2)ccc1F` [Cpd 259, N-(4-cyano-2-fluoro-phenyl)-5-(4-fluoro-3-methoxy-phenyl)-1H-pyrrole-3-sulfonamide], the IC50 was in the range of 0.5 to 5 µM.

As to `N#Cc1ccc(NS(=O)(=O)c2c[nH]c(-c3cc(Cl)ccc3Cl)c2)c(F)c1` [Cpd 260, N-(4-cyano-2-fluoro-phenyl)-5-(2,5-dichlorophenyl)-1H-pyrrole-3-sulfonamide], the IC50 was less than 0.5 µM. As for `N#Cc1ccc(NS(=O)(=O)c2c[nH]c(-c3ccc(Cl)cc3Cl)c2)c(F)c1` [Cpd 261, N-(4-cyano-2-fluoro-phenyl)-5-(2,4-dichlorophenyl)-1H-pyrrole-3-sulfonamide], the figure is 0.5 to 5 µM; as for `Cc1cc(Cl)ccc1-c1cc(S(=O)(=O)Nc2ccc(C#N)cc2F)c[nH]1` [Cpd 262, 5-(4-chloro-2-methyl-phenyl)-N-(4-cyano-2-fluoro-phenyl)-1H-pyrrole-3-sulfonamide], 0.5 to 5 µM; as for `Cc1cccc(-c2cc(S(=O)(=O)Nc3ccc(C#N)cc3F)c[nH]2)c1Cl` [Cpd 263, 5-(2-chloro-3-methyl-phenyl)-N-(4-cyano-2-fluoro-phenyl)-1H-pyrrole-3-sulfonamide], 0.5 to 5 µM. Consider `Cc1ccc(-c2cc(S(=O)(=O)Nc3ccc(C#N)cc3F)c[nH]2)cc1F` [Cpd 264, N-(4-cyano-2-fluoro-phenyl)-5-(3-fluoro-4-methyl-phenyl)-1H-pyrrole-3-sulfonamide], for which the half-inhibitory concentration (IC50) lay within 0.5 to 5 µM.

Consider `COc1cccc(Cl)c1-c1cc(S(=O)(=O)Nc2ccc(C#N)cc2F)c[nH]1` [Cpd 265, 5-(2-chloro-6-methoxy-phenyl)-N-(4-cyano-2-fluoro-phenyl)-1H-pyrrole-3-sulfonamide], for which the IC50 was in the range of 0.5 to 5 µM. Regarding `COc1cccc(-c2cc(S(=O)(=O)Nc3ccc(C#N)cc3F)c[nH]2)c1Cl` [Cpd 266, 5-(2-chloro-3-methoxy-phenyl)-N-(4-cyano-2-fluoro-phenyl)-1H-pyrrole-3-sulfonamide], the IC50 was 5 to 50 µM. Consider `N#Cc1ccc(NS(=O)(=O)c2c[nH]c(-c3cccc(F)c3Cl)c2)c(F)c1` [Cpd 267, 5-(2-chloro-3-fluoro-phenyl)-N-(4-cyano-2-fluoro-phenyl)-1H-pyrrole-3-sulfonamide], for which the IC50 is less than 0.5 µM. In the case of `COc1ccc(C)c(-c2cc(S(=O)(=O)Nc3ccc(C#N)cc3F)c[nH]2)c1` [Cpd 268, N-(4-cyano-2-fluoro-phenyl)-5-(5-methoxy-2-methyl-phenyl)-1H-pyrrole-3-sulfonamide], the IC50 fell in the range of 0.5 to 5 µM. Regarding `Cc1cc(-c2cc(S(=O)(=O)Nc3ccc(C#N)cc3F)c[nH]2)ccc1F` [Cpd 269, N-(4-cyano-2-fluoro-phenyl)-5-(4-fluoro-3-methyl-phenyl)-1H-pyrrole-3-sulfonamide], the IC50 is less than 0.5 µM. For the molecule `N#Cc1ccc(NS(=O)(=O)c2c[nH]c(-c3c(Cl)cccc3Cl)c2)c(F)c1` [Cpd 270, N-(4-cyano-2-fluoro-phenyl)-5-(2,6-dichlorophenyl)-1H-pyrrole-3-sulfonamide], the IC50 fell in the range of 0.5 to 5 µM. Then `O=S(=O)(Nc1cc(F)c(OC(F)F)cc1F)c1c[nH]cc1Cc1ccccc1` [Cpd 271, 4-benzyl-N-[4-(difluoromethoxy)-2,5-difluoro-phenyl]-1H-pyrrole-3-sulfonamide], with less than 0.5 µM.

(Values after patent US20240299385A1 (ReWind Therapeutics NV, priority 2021, published 2024).)
